From patent publication US12594339B2, “Lipid prodrugs of JAK inhibitors and uses thereof” (Seaport Therapeutics, Inc., priority 2019, dated 2026)

test: Lymphatic transport assay in mesenteric lymph-duct cannulated rats; type: in vivo, rat; settings: marked with asterisk: analytical procedure without a hydrolysis step (intact lipid prodrug), intraduodenal infusion, anaesthetised mesenteric lymph-duct cannulated rats
Protocol: In order to assess the lymphatic transport of disclosed lipid prodrugs in rats, the mesenteric lymph ducts of the rats used in this study were cannulated to allow continual collection of mesenteric lymph. Lipid formulations containing the compound of interest were then administered to the animals, lymph was collected, and drug concentrations in the lymph samples were quantified.
Lipid-based formulations of the compounds of the invention or control compounds were prepared as previously described (Trevaskis, N. L. et al., Pharmaceutical Research, 2005, 22(11), 1863-1870, WO 2016/023082, and WO 2017/041139, hereby incorporated by reference).
In brief, either 1 or 2 mg of test prodrug, 40 mg oleic acid and 25 mg Tween 80 were mixed in a glass vial and incubated at 37° C. for 12-18 h to equilibrate. An aqueous phase consisting of 5.6 ml phosphate buffered saline (PBS, pH 7.4) was subsequently added to the lipid phase (tofacitinib was dissolved in PBS for the preparation of tofacitinib-containing formulations) and the formulation emulsified by ultrasonication with a Misonix XL 2020 ultrasonic processor (Misonix, Farmingdale, NY, USA) equipped with a 3.2-mm microprobe tip running at 30% of the maximal amplitude of 240 μm and a frequency of 20 kHz for 2 min at room temperature. Doses for administering to more than one animal can be prepared in one batch by suitably increasing the quantities given above. Drug/prodrug concentrations in all formulations were verified using HPLC-MS.
Male Sprague-Dawley (SD) rats were selected for the lymphatic transport studies. Rats (typically 240-320 g) were maintained on a standard diet and fasted overnight with free access to water prior to experiments.
Anesthetized rats were placed on a heated pad at 37° C. and cannulas inserted into the duodenum (for formulation administration and rehydration), mesenteric lymph duct (for lymph collection), and carotid artery (in cases where blood collection was conducted). Post-surgery, rats were re-hydrated for 0.5 h via intraduodenal infusion of normal saline at 2.8 mL/h. The lipid formulations were infused into the duodenum at 2.8 mL/h for 2 h after which, normal saline was infused at 2.8 mL/h for the remainder of the experiment. Lymph was continuously collected for up to 8 h into pre-weighed Eppendorf tubes containing 10 μL of 1,000 IU/mL heparin. The collection tubes were changed hourly and lymph flow was measured gravimetrically. Aliquots of hourly lymph samples were stored at −20° C. prior to assay.
For most compounds, drug concentration in lymph is expressed as total drug and includes free drug and drug associated with different glycerides. Lymph samples were first treated with a lipase or other appropriate conditions to liberate free active agent prior to measurement of active agent levels in the lymph. Treatment with a lipase or other hydrolysis conditions liberates free active agent from any corresponding re-esterified glycerides. Porcine pancreatic lipase is appropriate for this purpose. Alternatively, hydrolysis with 0.5 M NaOH may be used.
For certain compounds, drug concentration was measured for the intact lipid prodrug specifically, without exposing the lymph samples to hydrolysis conditions.
Transport of compounds into lymph during each hourly collection period was calculated from the product of the volume of lymph collected and the measured concentrations in lymph. For fluorescent or fluorescently-labelled compounds, the concentrations of total compound may be measured by fluorescence spectroscopy without hydrolysis.
Table 5 summarizes lymphatic transport of total tofacitinib related compound (% of administered dose) following intraduodenal infusion to anaesthetised, mesenteric lymph-duct cannulated rats. Data are presented as mean±SD when n≥3 or mean± range when n=2. […]

Compound	Cumulative lymphatic transport % dose
CCCCCCCCCCCCCCCC(=O)OCC(COC(=O)CCCCCCCCCCCCCCC)OC(=O)CC(C)CCCCCCCCCCC(C)C(=O)n1ccc2c(N(C)[C@H]3CN(C(=O)CC#N)CC[C@H]3C)ncnc21 (stereo partly drawn) [I-39, 2-((15-(4-(((3R,4R)-1-(2-cyanoacetyl)-4-methylpiperidin-3-yl)(methyl)amino)-7H-pyrrolo[2,3-d]pyrimidin-7-yl)-3,14-dimethyl-15-oxopentadecanoyl)oxy)propane-1,3-diyl dipalmitate]	A* (lymphatic transport assay result of greater than 10% (>10%))
CCCCCCCCCCCCCCCC(=O)OCC(COC(=O)CCCCCCCCCCCCCCC)OC(=O)CC(C)CCCCCCC(=O)n1ccc2c(N(C)[C@H]3CN(C(=O)CC#N)CC[C@H]3C)ncnc21 (stereo partly drawn) [I-9, 2-((10-(4-(((3R,4R)-1-(2-cyanoacetyl)-4-methylpiperidin-3-yl)(methyl)amino)-7H-pyrrolo[2,3-d]pyrimidin-7-yl)-3-methyl-10-oxodecanoyl)oxy)propane-1,3-diyl dipalmitate]	B* (lymphatic transport assay result between 1% and 10% (1%-10%))

same assay, conditions: numeric value for parent drug, intraduodenal infusion, anaesthetised mesenteric lymph-duct cannulated rats

Compound	Cumulative lymphatic transport % dose
C[C@@H]1CCN(C(=O)CC#N)C[C@@H]1N(C)c1ncnc2[nH]ccc12 [Tofacitinib, tofacitinib, reference compound]	<0.3 % dose

same assay, conditions: numeric value for parent drug, intraduodenal infusion, anaesthetised mesenteric lymph-duct cannulated rats; listed as tofacitinib

Compound	Cumulative lymphatic transport % dose
C[C@@H]1CCN(C(=O)CC#N)C[C@@H]1N(C)c1ncnc2[nH]ccc12 [Tofacitinib, tofacitinib, reference compound]	< 0.3 % dose

same assay, conditions: total tofacitinib related compound (lymph hydrolysed before assay), intraduodenal infusion, anaesthetised mesenteric lymph-duct cannulated rats, lymph collected up to 8 h

Compound	Cumulative lymphatic transport % dose
CCCCCCCCCCCCCCCC(=O)OCC(COC(=O)CCCCCCCCCCCCCCC)OC(=O)CC(C)CC(=O)OC(C)OC(=O)n1ccc2c(N(C)[C@H]3CN(C(=O)CC#N)CC[C@H]3C)ncnc21 (stereo partly drawn) [I-40, 1-(1,3-bis(palmitoyloxy)propan-2-yl) 5-(1-((4-(((3R,4R)-1-(2-cyanoacetyl)-4-methylpiperidin-3-yl)(methyl)amino)-7H-pyrrolo[2,3-d]pyrimidine-7-carbonyl)oxy)ethyl) 3-methylpentanedioate]	D (lymphatic transport assay result of less than 0.05% (<0.05%))
CCCCCCCCCCCCCCCC(=O)OCC(COC(=O)CCCCCCCCCCCCCCC)OC(=O)CC(C)CCCCCCC(C)CC(=O)n1ccc2c(N(C)[C@H]3CN(C(=O)CC#N)CC[C@H]3C)ncnc21 (stereo partly drawn) [I-13, 2-((12-(4-(((3R,4R)-1-(2-cyanoacetyl)-4-methylpiperidin-3-yl)(methyl)amino)-7H-pyrrolo[2,3-d]pyrimidin-7-yl)-3,10-dimethyl-12-oxododecanoyl)oxy)propane-1,3-diyl dipalmitate]	A (lymphatic transport assay result of greater than 10% (>10%))
CCCCCCCCCCCCCCCC(=O)OCC(COC(=O)CCCCCCCCCCCCCCC)OC(=O)CC(C)CCCCCCCCCCCC(=O)n1ccc2c(N(C)[C@H]3CN(C(=O)CC#N)CC[C@H]3C)ncnc21 (stereo partly drawn) [I-10, 2-((15-(4-(((3R,4R)-1-(2-cyanoacetyl)-4-methylpiperidin-3-yl)(methyl)amino)-7H-pyrrolo[2,3-d]pyrimidin-7-yl)-3-methyl-15-oxopentadecanoyl)oxy)propane-1,3-diyl dipalmitate]	B (lymphatic transport assay result between 1% and 10% (1%-10%))
CCCCCCCCCCCCCCCC(=O)OCC(COC(=O)CCCCCCCCCCCCCCC)OC(=O)CC(C)CCCCCCCC(C)C(=O)Oc1c(C)cc(COC(=O)n2ccc3c(N(C)[C@H]4CN(C(=O)CC#N)CC[C@H]4C)ncnc32)cc1C (stereo partly drawn) [I-15, 12-(1,3-bis(palmitoyloxy)propan-2-yl) 1-(4-(((4-(((3R,4R)-1-(2-cyanoacetyl)-4-methylpiperidin-3-yl)(methyl)amino)-7H-pyrrolo[2,3-d]pyrimidine-7-carbonyl)oxy)methyl)-2,6-dimethylphenyl) 2,10-dimethyldodecanedioate]	A (lymphatic transport assay result of greater than 10% (>10%))
CCCCCCCCCCCCCCCC(=O)OCC(COC(=O)CCCCCCCCCCCCCCC)OC(=O)CC(C)CCCCCCC(=O)Oc1c(C)cc(COC(=O)n2ccc3c(N(C)[C@H]4CN(C(=O)CC#N)CC[C@H]4C)ncnc32)cc1C (stereo partly drawn) [I-14, 10-(1,3-bis(palmitoyloxy)propan-2-yl) 1-(4-(((4-(((3R,4R)-1-(2-cyanoacetyl)-4-methylpiperidin-3-yl)(methyl)amino)-7H-pyrrolo[2,3-d]pyrimidine-7-carbonyl)oxy)methyl)-2,6-dimethylphenyl) 8-methyldecanedioate]	B (lymphatic transport assay result between 1% and 10% (1%-10%))
CCCCCCCCCCCCCCCC(=O)OCC(COC(=O)CCCCCCCCCCCCCCC)OC(=O)CC(C)CCCCCCCCC(=O)Oc1c(C)cc(COC(=O)n2ccc3c(N(C)[C@H]4CN(C(=O)CC#N)CC[C@H]4C)ncnc32)cc1C (stereo partly drawn) [I-16, 1-(1,3-bis(palmitoyloxy)propan-2-yl) 12-(4-(((4-(((3R,4R)-1-(2-cyanoacetyl)-4-methylpiperidin-3-yl)(methyl)amino)-7H-pyrrolo[2,3-d]pyrimidine-7-carbonyl)oxy)methyl)-2,6-dimethylphenyl) 3-methyldodecanedioate]	A (lymphatic transport assay result of greater than 10% (>10%))
CCCCCCCCCCCCCCCC(=O)OCC(COC(=O)CCCCCCCCCCCCCCC)OC(=O)CC(C)CCCCCC(=O)n1ccc2c(N(C)[C@H]3CN(C(=O)CC#N)CC[C@H]3C)ncnc21 (stereo partly drawn) [I-7]	B (lymphatic transport assay result between 1% and 10% (1%-10%))
CCCCCCCC/C=C\CCCCCCCC(=O)OCC(COC(=O)CCCCCCC/C=C\CCCCCCCC)OC(=O)CC(C)CCCCCCCCCC(C)CC(=O)n1ccc2c(N(C)[C@H]3CN(C(=O)CC#N)CC[C@H]3C)ncnc21 (stereo partly drawn) [I-33, 2-((15-(4-(((3R,4R)-1-(2-cyanoacetyl)-4-methylpiperidin-3-yl)(methyl)amino)-7H-pyrrolo[2,3-d]pyrimidin-7-yl)-3,13-dimethyl-15-oxopentadecanoyl)oxy)propane-1,3-diyl dioleate]	A (lymphatic transport assay result of greater than 10% (>10%))
